Experimental data taken from patent US20090209457A1, “TREATMENT OF ANTI-ERYTHROPOIETIN ANTIBODY-MEDIATED DISORDERS WITH SYNTHETIC PEPTIDE-BASED EPO RECEPTOR AGONISTS” (Affymax, Inc., priority 2008, published 2009).
“Also recorded” adds a separate entry of the source. Bridge positions count the residues as written; N and C are the ends. Square brackets hold non-standard residues; d marks the D form. Ends that are not written are not given here. 1Nal = N[C@@H](Cc1cccc2ccccc12)C(=O)O; Sar = CNCC(=O)O

Experiments:
[1] = system: patients with anti-EPO antibody-mediated PRCA; assay: Open-label clinical study in patients with anti-EPO antibody-mediated PRCA; assay type: in vivo, human
Experimental: An open-label, prospective, non-randomized study was conducted to investigate the ability of Peptide I to correct anemia in patients with PRCA that is characterized by anti-EPO antibodies. The pre-specified primary objective was to determine if Peptide I could increase and maintain hemoglobin levels above 11 g/dL (consistent with both U.S.[KDOQI Clinical Practice Guidelines and Clinical Practice Recommendations for Anemia in Chronic Kidney Disease (2006) Am. J. Kidney Dis. 47 (Suppl 3):S11-S145.] and European Guidelines [Locatelli F, et al. (2004) Nephrol. Dial. Transplant 19 (Suppl 2): ii1-47.]) without the need for red cell transfusions in patients with anti-EPO antibody-mediated PRCA during 6 months of treatment. The effect of Peptide I on reducing red cell transfusions, the time required to correct anemia in the absence of transfusions, dose requirements, and safety were also assessed.
Patients older than 18 years of age were eligible for inclusion if they had CKD (with or without the need for dialysis) and PRCA or red cell hypoplasia due to anti-EPO antibodies. Patients were required to have a documented history of: (1) a decrease in hemoglobin concentration while receiving a stable or increased dose of a protein-based ESA, or red cell transfusion dependency; (2) reticulocyte counts of <30×10^9/L; (3) a bone marrow examination showing severe erythroid hypoplasia or aplasia; and (4) a confirmed positive test for anti-EPO antibodies. Patients may have received immunosuppressive therapy previously, but these medications were to be discontinued for at least three months prior to enrollment. At the time of enrollment, patients had to either be transfusion-dependent, or have a hemoglobin concentration persistently below 11 g/dL without ESA therapy. The presence of another hematological disorder, another known cause of PRCA, and current treatment with ESA or immunosuppressive therapy represented the major exclusion criteria.
Blood samples were taken for baseline measurement of the complete blood count, reticulocyte count, urea, electrolytes, liver function tests, iron status, anti-EPO antibodies, and anti-Peptide I antibodies. Upon meeting study eligibility criteria, treatment with Peptide I was initiated at a dose of 0.05 mg/kg by SC injection Q4W. Hemoglobin and reticulocyte counts were performed weekly, while samples were taken monthly for other safety laboratory parameters including urea, electrolytes, liver function tests and anti-EPO and anti-Peptide I antibodies. The frequency and dose of each injection was adjusted based on the patient's hemoglobin response to achieve a hemoglobin level in the target range of 11-13 g/dL. This target was subsequently changed to 11-12 g/dL in early 2007 following publication of the CREATE [Drueke T B, et al. (2006) N. Engl. J. Med. 355: 2071-84] and CHOIR [Singh A K, et al. (2006) N. Engl. J. Med 355: 2085-98] studies, in line with subsequent KDOQI recommendations [KDOQI Clinical Practice Guideline and Clinical Practice Recommendations for Anemia in Chronic Kidney Disease (2007) Am. J. Kidney Disease 50: 471-530].
The study was designed to enroll 5-20 patients with anti-EPO antibody mediated PRCA based on the Investigators' estimate of the maximum number of potentially eligible patients with access to the study centers. Patients were to be treated for an initial 6-month period. […] All patients who received at least one dose of Peptide I were included in the safety analysis, and those with at least one hemoglobin value following dosing were included in the efficacy analyses. All safety and efficacy results were summarized using descriptive statistics and data are presented as medians, 25th and 75th percentiles, and ranges.

[2] = in vivo; cited from earlier work

Question: With “PEGylated homodimer of peptide monomers (AcG)GLYACHMGPIT(1-nal)VCQPLR(MeG)K (SEQ ID NO: 2), EPO-R agonist (Ac-GGLYACHMGPIT[1Nal]VCQPLR[Sar]K; disulfide 6-15 (inferred); not fully specified (residue 21); printed as (AcG)GLYACHMGPIT(1-nal)VCQPLR(MeG)K; also: PEGylated) [Peptide I]” as the substance, how does the “patients with hemoglobin response (above 11 g/dL without transfusion)” value ([1]; 10 patients, median follow up 13.5 months, SC Q4W) read?
Answer: 10 patients

Question: And the tolerability ([1]; SC injections)?
Answer: generally well-tolerated

Question: What about the “patients receiving red blood cell transfusions” value ([1]; as of month 4) of the same substance?
Answer: one

Question: What about the median ferritin levels ([1]; at data cut-off, baseline 1,356 μg/L) of the same substance?
Answer: 1,243 μg/L

Question: What about the “median TSAT” value ([1]; at data cut-off, baseline 70.9%) of the same substance?
Answer: 50.0%

Question: And the “patients receiving red blood cell transfusions” value ([1]; at month 6)?
Answer: no patient

Question: And the median hemoglobin ([1]; by 6 months, baseline 9.7 g/dL)?
Answer: 11.6 g/dL

Question: What about the “patients receiving red blood cell transfusions” value ([1]; during month 7 (prior to kidney transplant surgery)) of the same substance?
Answer: one

Question: And the “patients receiving red blood cell transfusions” value ([1]; during the first month)?
Answer: 3 patients

Question: What about the “patients receiving red blood cell transfusions” value ([1]; from month 8 onwards) of the same substance?
Answer: no patient

Question: What about the “median time to hemoglobin response” value ([1]; human, in vivo) of the same substance?
Answer: 10 weeks

Question: And the “serious adverse events related to study drug” value ([1]; human, in vivo)?
Answer: none of these events was considered related to study drug; also recorded: no reports of serious adverse events related to Peptide I

Question: What about the serious adverse events ([1]; in 2 patients) of the same substance?
Answer: Four

Question: What about the adverse events reported ([1]; in 10 patients) of the same substance?
Answer: 108 events

Question: And the “adverse events at least possibly related to Peptide I” value ([1]; of 108 events)?
Answer: 4 events

Question: And the “adverse events mild or moderate in severity” value ([1]; of 108 events)?
Answer: 97 events

Question: What about the clearance times [2] of the same substance?
Answer: slow

Question: What about the half-life [2] of the same substance?
Answer: prolonged
